Source: article PMC6348446 (Journal of Medicinal Chemistry, 2018)
Like-named read-outs stand apart in the source and are kept apart here.

Experiments:
BRD9 = biological target: T1, BRD9 (Homo sapiens, UniProt Q9H8M2); test: Western blot of BRD9 levels in HeLa cells after compound treatment; assay type: cell-based; conditions: 1 μM compound; for remaining activity at 1 µM: Table 2, % of total protein remaining relative to 0.1% DMSO vehicle, HeLa cell lysates; for BRD9 degradation: HeLa cells
T1 construct: Western blot analysis of BRD9 and BRD7 levels after treatment of HeLa cells; endogenous in cells; host or cells: HeLa
T1 sequence (Q9H8M2 1-597): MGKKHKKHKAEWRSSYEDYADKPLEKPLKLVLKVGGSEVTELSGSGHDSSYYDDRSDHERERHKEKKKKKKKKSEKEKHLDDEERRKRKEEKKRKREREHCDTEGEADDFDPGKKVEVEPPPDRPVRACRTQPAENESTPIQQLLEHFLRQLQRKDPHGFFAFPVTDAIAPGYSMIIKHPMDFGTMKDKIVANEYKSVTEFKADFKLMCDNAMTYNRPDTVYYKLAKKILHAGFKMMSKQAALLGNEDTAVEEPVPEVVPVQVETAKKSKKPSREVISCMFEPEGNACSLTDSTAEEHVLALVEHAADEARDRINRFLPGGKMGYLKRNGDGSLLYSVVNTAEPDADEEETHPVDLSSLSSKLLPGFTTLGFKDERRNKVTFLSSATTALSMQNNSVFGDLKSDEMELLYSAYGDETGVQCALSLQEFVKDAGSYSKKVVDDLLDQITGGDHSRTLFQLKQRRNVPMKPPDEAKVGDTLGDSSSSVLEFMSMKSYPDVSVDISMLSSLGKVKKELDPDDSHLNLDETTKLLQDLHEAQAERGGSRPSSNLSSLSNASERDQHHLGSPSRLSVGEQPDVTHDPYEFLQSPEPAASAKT

EOL-1 cells = test: Cell viability/proliferation (cellular ATP, CellTiterGlo) in EOL-1; assay type: cell-based; conditions: Homo sapiens, EOL1; EOL-1, text; read-out: EC50 (cytotoxicity, cell viability)
A-204 cells = test: Cell viability/proliferation (cellular ATP, CellTiterGlo) in A-204; assay type: cell-based; conditions: Homo sapiens, A204; A-204 (printed A-402); read-out: EC50 (cytotoxicity, cell viability)
Procedure: A-204 cells (1 × 10^3) were seeded per well of 384-well plates. After overnight incubation, compounds were added to the cells at logarithmic dose series using the HP digital dispenser D300 (Tecan), normalizing for added DMSO. 1 day and 8 days after seeding cellular ATP content was measured using CellTiterGlo (Promega). Measurements after 8 days were divided by the measurement after 1 day (i.e., the T0 plate) to derive fold proliferation. Data were analyzed with GraphPad Prism software to obtain EC50 values.

[1] = Intrinsic clearance in mouse liver microsomes; assay type: in vitro ADME; conditions: 0.5 µM compound
Procedure: (§1) compounds against known CHI values. The CHI value of test compounds was then calculated according to their retention time.
(§2) Test compounds were prepared as 0.25 mM solutions in 50:50 acetonitrile:water and analysed by reversed-phase HPLC-UV (wavelength 254 nm) using a ACE Excel 3 SuperC18, 3 µm, 50 x 2.1 mm column with a gradient of aqueous phase (10 mM ammonium acetate, pH 7.4) and mobile phase (acetonitrile).
(§3) Intrinsic clearance (Cli) experiments
(§4) Test compound (0.5 µM) was incubated with female CD1 mouse or human (mixed gender) liver microsomes (Xenotech LLCTM; 0.5 mg/mL 50mM potassium phosphate buffer, pH7.4) and the reaction initiated with addition of excess NADPH (8 mg/mL 50 mM potassium phosphate buffer, pH7.4). Immediately, at time zero, then at 3, 6, 9, 15 and 30 minutes an aliquot (50 µL) of the incubation mixture was removed and mixed with acetonitrile (100 µL) to stop the reaction. Internal standard was added to all samples, the samples centrifuged to sediment precipitated protein and the plates then sealed prior to […] analysis using […]
(§5) a Xevo TQ-S Micro (Waters corporation, USA).
(§6) XLfit (IDBS, UK) was used to calculate the exponential decay and consequently the rate constant (k) from the ratio of peak area of test compound to internal standard at each timepoint. The rate of intrinsic clearance (CLi) of each test compound was then calculated using the following calculation: […]

[2] = Intrinsic clearance in human liver microsomes; assay type: in vitro ADME; conditions: 0.5 µM compound
Procedure: as §1, §2, §3, §4, §5, §6

**Q.** Which results are given for `COc1cc(-c2cn(C)c(=O)c3cnccc23)cc(OC)c1CN1CCN(CCOCCOCC(=O)N[C@H](C(=O)N2C[C@H](O)C[C@H]2C(=O)NCc2ccc(-c3scnc3C)cc2)C(C)(C)C)CC1` [Compound 5, (2S,4R)-1-((S)-2-(2-(2-(2-(4-(2,6-Dimethoxy-4-(2-methyl-1-oxo-1,2-dihydro-2,7-naphthyridin-4-yl)benzyl)piperazin-1-yl)ethoxy)ethoxy)acetamido)-3,3-dimethylbutanoyl)-4-hydroxy-N-(4-(4-methylthiazol-5-yl)benzyl)pyrrolidine-2-carboxamide]?
**A.** remaining activity at 1 µM (BRD9; 16 h, read-out: BRD9 16 h (%)): 89%; BRD9 degradation (BRD9; 4 h): at most 20%; BRD9 degradation (BRD9; 16 h): ≤ 30%

**Q.** What does the source list for `COc1cc(-c2cn(C)c(=O)c3cnccc23)cc(OC)c1CN1CCN(CCCCCOc2cc(-c3scnc3C)ccc2CNC(=O)[C@@H]2C[C@@H](O)CN2C(=O)[C@@H](NC(=O)C2(F)CC2)C(C)(C)C)CC1` [Compound 51, (2S,4R)-N-(2-((5-(4-(2,6-Dimethoxy-4-(2-methyl-1-oxo-1,2-dihydro-2,7-naphthyridin-4-yl)benzyl)piperazin-1-yl)pentyl)oxy)-4-(4-methylthiazol-5-yl)benzyl)-1-((S)-2-(1-fluorocyclopropane-1-carboxamido)-3,3-dimethylbutanoyl)-4-hydroxypyrrolidine-2-carboxamide]?
**A.** EC50 (EOL-1 cells): 3 nM; EC50 (A-204 cells): 40 nM

**Q.** With `COc1cc(-c2cn(C)c(=O)c3cnccc23)cc(OC)c1CN1CCN(CCOCCOCCOc2cc(-c3scnc3C)ccc2CNC(=O)[C@@H]2C[C@@H](O)CN2C(=O)[C@@H](NC(=O)C2(F)CC2)C(C)(C)C)CC1` [Compound 26, (2S,4R)-N-(2-(2-(2-(2-(4-(2,6-Dimethoxy-4-(2-methyl-1-oxo-1,2-dihydro-2,7-naphthyridin-4-yl)benzyl)piperazin-1-yl)ethoxy)ethoxy)ethoxy)-4-(4-methylthiazol-5-yl)benzyl)-1-((S)-2-(1-fluorocyclopropane-1-carboxamido)-3,3-dimethylbutanoyl)-4-hydroxypyrrolidine-2-carboxamide] as the molecule, how does the remaining activity at 1 µM (BRD9; 4 h, read-out: BRD9 4 h (%)) read?
**A.** 14%

**Q.** Which “Microsomal stability (intrinsic clearance), Mouse” value [1] does the source give for `COc1cc(-c2cn(C)c(=O)c3cnccc23)cc(OC)c1CN1CCN(CCCCCOc2cc(-c3scnc3C)ccc2CNC(=O)[C@@H]2C[C@H](O)CN2C(=O)[C@@H](NC(=O)C2(F)CC2)C(C)(C)C)CC1` [cisVZ185] here?
**A.** 2.4 mL/min/g liver

**Q.** And the “Microsomal stability (intrinsic clearance), Human” value [2]?
**A.** 8.1 mL/min/g liver
